The source made the active and inactive calls. The calls are words filed in the database; no cut-off is given here.
Experiments:
[1] = target: T1, Prostaglandin G/H synthase 1 (Ovis aries, UniProt P05979)
T1 sequence (P05979 whole entry): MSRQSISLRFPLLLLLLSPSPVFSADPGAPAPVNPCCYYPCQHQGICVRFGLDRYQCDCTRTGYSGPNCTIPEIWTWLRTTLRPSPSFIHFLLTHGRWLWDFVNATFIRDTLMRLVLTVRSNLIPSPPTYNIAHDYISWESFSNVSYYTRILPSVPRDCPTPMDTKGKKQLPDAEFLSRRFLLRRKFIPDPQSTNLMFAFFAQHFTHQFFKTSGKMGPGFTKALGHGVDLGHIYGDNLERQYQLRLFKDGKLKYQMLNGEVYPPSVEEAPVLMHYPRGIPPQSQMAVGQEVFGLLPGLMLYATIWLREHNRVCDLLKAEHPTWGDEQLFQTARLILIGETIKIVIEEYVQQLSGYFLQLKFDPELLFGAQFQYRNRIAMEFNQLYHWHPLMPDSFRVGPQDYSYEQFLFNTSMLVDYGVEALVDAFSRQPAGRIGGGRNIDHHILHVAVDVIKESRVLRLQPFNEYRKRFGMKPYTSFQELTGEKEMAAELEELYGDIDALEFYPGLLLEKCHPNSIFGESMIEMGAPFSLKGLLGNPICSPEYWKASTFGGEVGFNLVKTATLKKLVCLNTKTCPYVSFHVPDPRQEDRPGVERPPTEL
Description: Inhibition of ovine COX-1 assessed as residual activity by measuring formation of 12-HHT from arachidonic acid by HPLC analysis

[2] = Modulation of gamma-secretase expressed in CHO cells co-expressing human APP and wild type human presenilin-1 assessed as increase of amyloid beta38 production by ELISA; format: cell-based
[3] = test system: CHO; test: Cytotoxicity against CHO cells expressing human APP and wild type human presenilin-1 assessed as reduction of cell viability up to 40 uM after 24 hrs by Alamar blue assay; format: cell-based, Cricetulus griseus; settings: chinese hamster
[4] = target: T2, Peroxisome proliferator-activated receptor gamma (Homo sapiens) (UniProt P37231); test: Modulation of human PPARgamma-LBD expressed in african green monkey COS7 cells co-transfected with Gal4 assessed as activation of transactivation activity at 10 uM by luciferase assay; format: cell-based; settings: COS-7
T2 sequence (whole entry): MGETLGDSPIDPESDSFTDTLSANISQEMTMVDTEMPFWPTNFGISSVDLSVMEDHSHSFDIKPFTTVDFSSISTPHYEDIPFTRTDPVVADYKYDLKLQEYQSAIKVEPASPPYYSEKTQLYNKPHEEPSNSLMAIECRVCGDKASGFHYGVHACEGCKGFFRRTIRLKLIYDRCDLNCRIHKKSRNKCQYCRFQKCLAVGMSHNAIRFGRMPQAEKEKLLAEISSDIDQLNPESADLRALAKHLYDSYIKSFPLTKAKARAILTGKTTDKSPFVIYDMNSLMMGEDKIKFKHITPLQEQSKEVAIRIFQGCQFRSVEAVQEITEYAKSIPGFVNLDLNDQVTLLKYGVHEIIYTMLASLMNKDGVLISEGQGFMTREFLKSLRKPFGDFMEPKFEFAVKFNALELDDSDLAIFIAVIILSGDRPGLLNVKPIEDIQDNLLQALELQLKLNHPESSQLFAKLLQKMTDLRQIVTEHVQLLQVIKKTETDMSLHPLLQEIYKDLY

[5] = target: T3, Peroxisome proliferator-activated receptor alpha (Homo sapiens) (UniProt Q07869); test: Modulation of human PPARalpha-LBD expressed in african green monkey COS7 cells co-transfected with Gal4 assessed as activation of transactivation activity at 10 uM by luciferase assay; format: cell-based; settings: COS-7
T3 sequence (whole entry): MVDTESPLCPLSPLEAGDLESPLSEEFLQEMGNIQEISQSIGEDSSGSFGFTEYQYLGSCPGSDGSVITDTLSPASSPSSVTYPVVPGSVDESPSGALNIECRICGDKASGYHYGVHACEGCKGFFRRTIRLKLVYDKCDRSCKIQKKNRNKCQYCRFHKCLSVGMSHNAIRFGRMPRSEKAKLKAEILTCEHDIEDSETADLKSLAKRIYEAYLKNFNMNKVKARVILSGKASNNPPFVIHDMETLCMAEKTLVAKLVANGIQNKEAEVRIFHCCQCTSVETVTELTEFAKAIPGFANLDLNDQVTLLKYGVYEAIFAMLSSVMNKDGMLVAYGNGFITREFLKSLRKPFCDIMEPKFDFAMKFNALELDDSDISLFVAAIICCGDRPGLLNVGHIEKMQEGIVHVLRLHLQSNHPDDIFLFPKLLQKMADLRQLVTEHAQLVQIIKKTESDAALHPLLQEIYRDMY

[6] = target: T4, Prostaglandin G/H synthase 1 (Ovis aries) (UniProt P05979); test: Inhibition of ovine COX-1 assessed as residual activity by measuring formation of 12-HHT from arachidonic acid at 10 uM by HPLC analysis
T4 sequence (whole entry): T1 sequence (P05979 whole entry)

[7] = target: T5, Prostaglandin G/H synthase 2 (Homo sapiens) (UniProt P35354); test: Inhibition of human recombinant COX-2 assessed as residual activity by measuring formation of 12-HHT from arachidonic acid at 10 uM by HPLC analysis
T5 sequence (whole entry): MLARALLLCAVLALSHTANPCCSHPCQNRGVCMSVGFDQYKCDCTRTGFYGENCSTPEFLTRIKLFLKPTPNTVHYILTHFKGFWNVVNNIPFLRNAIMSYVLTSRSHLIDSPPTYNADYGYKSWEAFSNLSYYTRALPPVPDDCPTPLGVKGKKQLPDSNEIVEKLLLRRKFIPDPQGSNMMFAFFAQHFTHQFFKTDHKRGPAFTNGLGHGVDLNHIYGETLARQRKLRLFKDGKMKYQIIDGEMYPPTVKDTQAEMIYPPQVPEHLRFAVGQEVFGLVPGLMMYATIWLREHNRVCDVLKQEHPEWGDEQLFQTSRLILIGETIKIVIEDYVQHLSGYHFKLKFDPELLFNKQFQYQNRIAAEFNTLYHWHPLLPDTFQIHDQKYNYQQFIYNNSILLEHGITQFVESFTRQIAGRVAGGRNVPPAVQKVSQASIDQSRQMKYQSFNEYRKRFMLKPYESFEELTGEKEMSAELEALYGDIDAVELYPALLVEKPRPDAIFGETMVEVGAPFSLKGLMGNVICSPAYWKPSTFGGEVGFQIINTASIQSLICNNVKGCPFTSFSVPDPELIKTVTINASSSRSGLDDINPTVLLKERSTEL

[8] = test system: CHO; test: Inhibition of gamma-secretase-mediated notch signaling expressed in CHO cells transfected with Gal4-DNA-binding/VP16 transactivation domain assessed as reduction of reporter activity up to 30 uM by luciferase assay; format: cell-based
[9] = Modulation of gamma-secretase expressed in CHO cells co-expressing human APP and wild type human presenilin-1 assessed as inhibition of amyloid beta42 production by ELISA; format: cell-based
[10] = target: T6, Peroxisome proliferator-activated receptor delta (Homo sapiens) (UniProt Q03181); test: Modulation of human PPARdelta-LBD expressed in african green monkey COS7 cells co-transfected with Gal4 assessed as activation of transactivation activity at 10 uM by luciferase assay; format: cell-based; settings: COS-7
T6 sequence (whole entry): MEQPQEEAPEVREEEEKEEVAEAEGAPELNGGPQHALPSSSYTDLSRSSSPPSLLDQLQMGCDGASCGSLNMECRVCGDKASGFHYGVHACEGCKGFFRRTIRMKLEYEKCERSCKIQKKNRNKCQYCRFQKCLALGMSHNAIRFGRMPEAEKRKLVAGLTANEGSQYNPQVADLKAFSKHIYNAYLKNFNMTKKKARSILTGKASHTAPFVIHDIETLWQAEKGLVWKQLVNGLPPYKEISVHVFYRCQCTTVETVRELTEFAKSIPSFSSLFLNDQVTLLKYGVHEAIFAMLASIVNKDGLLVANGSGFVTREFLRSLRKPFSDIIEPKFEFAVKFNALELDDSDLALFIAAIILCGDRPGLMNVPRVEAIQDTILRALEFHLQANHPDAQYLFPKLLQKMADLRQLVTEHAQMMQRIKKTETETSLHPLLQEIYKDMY

[11] = Selectivity ratio of inhibition of gamma-secretase-mediated notch signaling to modulation of gamma-secretase
[12] = Modulation of gamma-secretase expressed in CHO cells co-expressing human APP and wild type human presenilin-1 assessed as reduction of amyloid beta38 production by ELISA

IC50 [1] | EC50 [2] | Activity [4] | Activity [5] | Activity [6] | Activity [7] | IC50 [9] | Activity [10] | Ratio [11] | IC50 [12] | Structure (SMILES) | Activity [3] | inhibition [8]
16.7 µM |  |  |  |  |  |  |  |  |  | CCCCC(Sc1nc(OCCc2ccccc2)cc(OCCc2ccccc2)n1)C(=O)O (stereo not drawn) |  | 
 | 3.1 µM | 75% | inactive | 76.4% | 123% | 3.9 µM | inactive | 8 |  | CCCC/C(=C\c1cc(OCCC2CCCCC2)ccc1OCCC1CCCCC1)C(=O)O | Non-toxic | inactive
 |  | inactive | inactive | 99.1% | 110% |  | inactive |  | 5 µM | CCCCC(Cc1ccc(OCCc2ccccc2)cc1OCCc1ccccc1)C(=O)O (stereo not drawn) | Non-toxic | 
